Entries after “also recorded” stand apart in the source; their conditions may differ.
Columns and labels:
[1] = test system: IL1B, IL8, CCL3, EGR1, FOSB and TNF gene expression in HMDMs; assay: Regulation of inflammatory genes in HMDM (qRT-PCR); type: cell-based, human; conditions: HMDMs, 300 nM, 30 minutes; qRT-PCR, fold change from control
Text: Human monocyte-derived macrophages (HMDMS) were isolated from buffy coat of anonymous donors provided by the Australian Red Cross Blood Service at Kelvin Grove, Queensland, Australia. White blood cells were separated from other blood components into different layers using Ficoll-Paque Plus Density Centrifugation (GE Healthcare Bio-Science, Uppsala, Sweden) according to manufacturer's instruction. The isolated white blood cells were repeatedly washed with ice-cold water to remove contaminating erythrocytes. CD14^+ monocytes were positively selected from white blood cells using CD14^+ Macs Magnetic Beads (Miltenyi biotech, Auburn, Calif., USA) after successive magnetic sorting and washings. CD14^+ monocytes (1.5×10^6 cells/mL) were seeded in 10 mL of IMDM supplemented with 10% fetal calf serum (FBS), 10 U/mL streptomycin, 10 U/mL penicillin and 2 mmol L-glutamine (Invitrogen). To generate HMDMS, […] of recombinant human macrophage colony stimulating factor (M-CSF) (Peprotech Inc., rocky Hill, N.J., USA) was added for differentiation. HMDMS were maintained at 37° C. in a humidified incubator with 5% CO2 for a week to fully differentiate. At day 7, the adhered HMDMS were harvested by gentle scraping in saline solution.
HMDMs (2×10^6) in 2 mL of IMDM medium were transferred into each well on a 6-well plate. The cells were left to incubate for 6 h to allow adhesion before being serum starved in serum free IMDM to reduce background noise of the C3a treatment. In the time response experiment, cells were treated with 10 nM of C3a or agonist (compound 8 or 64) for 0.5, 1, 2 or 6 h. In concentration response experiments, cells were treated with 1, 10, 100 or 300 nM for 1 h. To prepare the samples for the microarray experiments, cells were treated with agonist at 100-300 nM for 30 min or 1 h in the absence or presence of the antagonist (e.g. SB-290157 or antagonists). […] Cells were washed with saline solution at the end of each treatment before the RNA extraction step.
Total RNA was extracted from cells using RNeasy Mini Plus kit (Qiagen, USA) according to the manufacturer's instructions. The concentration of the RNA was determined by measuring absorbance at λ=260/280 […] on a nanodrop spectrophotometer (Thermo Scientific), according to the manufacturer's instructions.
Total RNA (2-5 μg) was reverse transcribed with Superscript III (Invitrogen, USA) using random oligo dT primer. Reagents were incubated (50 min, 50° C.; then 10 min, 70° C.) in thermal cyclers (Bio-Rad) to complete the reaction, cDNA samples were stored at −20° C. until further use. All RNA work was performed on ice (4° C.) to prevent degradation of the RNA samples.
cDNA (0.5 μg) samples were prepared with 5 μL SYBR® Green PCR master mix (Applied Biosystems™, CA, USA), 2 μL relevant primers (2 μM) and 1 μL dH2O before being analysed using an ABI 7900HT Fast Real-Time PCR System (Applied Biosystems™, CA, USA) according to the manufacturer's specifications. Fluorescence data was collected during the extension phase (60° C.). The concentration response data for each sample was then normalised against the same data for control housekeeping gene, (18S) to quantify and generate gene expression data. All samples were done in at least duplicate. Primers were designed using the Primer-BLAST software (National Center for Biotechnology Information, USA). Primers contained, amplicons that cross exon-exon boundaries to prevent amplification of genomic DNA. […]

[2] = test system: human kidney tubule cells; assay: ELISA of cytokines from human kidney tubule cells; type: cell-based; conditions: for IL-8: 0 μM gives 1.8 ± 0.3; for IL-6: 0 μM gives 2.4 ± 0.4; for TNF: 0 μM gives 10.1 ± 2; for GMCSF (pg/ml/ml): 0 μM gives 71.3 ± 23; for Fibronectin: 0 μM gives 75.2 ± 29
Procedure: Human renal cortical tissue (10 g) was minced finely, washed several times and agitated for 20 minutes at 37° C. in a Krebs-Henseleit buffer (KHB) containing collagenase type II (1 mg/mL), Cold KHB was added and the solution passed through a 297 μm sieve (50 Mesh, Sigma). After washing three times the tubular fragments were re-suspended in 45% percoll-KHB and centrifuged at 20000×g. A high density band, previously shown to be tubule fragments, was removed and cultured in a serum free, hormonally defined DMEM/F12 media (containing 10 ng/mL epidermal growth factor, 5 μg/mL insulin, […] transferrin, 50 nM hydrocortisone, […] prostaglandin E1, 50 nM selenium and 5 pM triiodothyronine). All experiments were performed on confluent passage 2 HTEC made quiescent by two washes followed by incubation for 24 h in serum and growth factor free DMEM/F12 media. These cells were incubated with C3aR agonists and antagonists.
Supernatant and lysates from cell culture treatment samples were collected and stored separately at −20° C. until further use. Human IL1B, IL8, IL6 and TNF levels were determined using the respective OptEIA™ ELISA kit (BD Biosciences, San Diego, USA) according to the manufacturer's instructions. The readings were recorded on a FLUOstar Optima (BMG LabTechnologies, Offenburg, Germany).

## CC(C)C[C@H](NC(=O)c1c[nH]c2ccccc12)c1nc(C(=O)N[C@@H](CCCNC(=N)N)C(=O)O)co1 [Compound 8, 3-Indole Carboxylic Acid-Leucine-Oxazole-Arginine-OH]
[1]
  Induction of gene expression of IL1B, IL8, CCL3, EGR1, FOSB and TNF: significantly induce gene expression; also recorded: induced expression of inflammatory genes
[2]; compound 8 at 1 μM
  IL-8: 1.9 ± 0.4 ng/mL
  IL-6: 2.5 ± 0.1 ng/mL
  TNF: 9.9 ± 1 pg/mL
  GMCSF (pg/ml/ml): 74.6 ± 7.1 pg/ml/ml
  Fibronectin: 89.6 ± 11 ng/mL
[2]; compound 8 at 2.5 μM
  IL-8: 5.7 ± 2 ng/mL
  IL-6: 8.2 ± 0.6 ng/mL
  TNF: 12.3 ± 1 pg/mL
  GMCSF (pg/ml/ml): 142.8 ± 10.9 pg/ml/ml
  Fibronectin: 89.0 ± 5 ng/mL
[2]; compound 8 at 5 μM
  IL-8: 31.5 ± 5 ng/mL
  IL-6: 30.9 ± 2.5 ng/mL
  TNF: 76.6 ± 13 pg/mL
  GMCSF (pg/ml/ml): 738.0 ± 127.6 pg/ml/ml
  Fibronectin: 149.5 ± 21 ng/mL
[2]; compound 8 at 10 μM
  IL-8: 30.4 ± 8 ng/mL
  IL-6: 33.5 ± 5 ng/mL
  TNF: 117.8 ± 53 pg/mL
  GMCSF (pg/ml/ml): 1056 ± 147.8 pg/ml/ml
  Fibronectin: 172.9 ± 20 ng/mL
[2]; compound 8 at 20 μM
  IL-8: 76.4 ± 18 ng/mL
  IL-6: 55.8 ± 12 ng/mL
  TNF: 277.9 ± 28 pg/mL
  GMCSF (pg/ml/ml): 2853 ± 399 pg/ml/ml
  Fibronectin: 200.9 ± 28 ng/mL
[2]; compound 8 at 40 μM vs 0 μM
  Induction at 40 μM, Fibronectin: 2-fold
  Induction at 40 μM, GMCSF: 80-fold
  Induction at 40 μM, IL-6: 40-fold
  Induction at 40 μM, IL-8: 75-fold
  Induction at 40 μM, TNF: 75-fold
[2]; compound 8 at 40 μM
  IL-8: 135.0 ± 9 ng/mL
  IL-6: 96.9 ± 29 ng/mL
  TNF: 757.8 ± 13 pg/mL
  GMCSF (pg/ml/ml): 5790 ± 726 pg/ml/ml
  Fibronectin: 148.0 ± 32 ng/mL
[2]; primary human kidney cells
  Secretion of inflammatory cytokines: induces secretion of inflammatory cytokines
